The values below come from US6114371A, “3-(cyclohexanoheteroarylidenyl)-2-indolinone protein tyrosine kinase inhibitors” (Sugen, Inc., priority 1998, dated 2000).

Each structure is given as a SMILES string.

Assay [1] deals with Myc-GyrB-FGFR fusion protein. The assay is described as follows: Assay measuring the kinase activity of the FGF receptor (Myc-GyrB-FGFR fusion protein). It counts as biochemical. As to conditions: Table 5; 7 μM ATP. The method, then: The following protocol describes the reagents and procedures used to analyze protein tyrosine kinase activity of the Myc-GyrB-FGFR fusion protein.
5. Add 15 μg COS/FGFR cell lysate Myc-GyrB-FGFR sources per well in HNTG for a final volume of 100 μL per well. Incubate while shaking on a micro-liter plate shaker at room temperature for 2 hours.
9. At this point diluted Compounds/Extracts are added to the ELISA plate. Transfer 10 μL of diluted test and control wells from the polypropylene plate wells to the corresponding ELISA plate wells. Incubate while shaking on a micro-liter plate shaker at room temperature for 20 minutes.
10. Add 10 μL of 70 μM ATP diluted in kinase buffer to positive control and test wells (Final ATP concentration is 7 μM/well.) Add 10 μL of 1×kinase buffer to negative control wells. Incubate while shaking on a micro-liter plate shaker at room temperature for 15 min.
22. Read assay on Dynatech MR7000 ELISA Plate Reader.
(§1) The IC50 values were measured for several of the compounds of the invention.

Assay [2] concerns the target EGFr (Homo sapiens, UniProt P00533). The assay can be described thus: EGF-induced BrdU incorporation assay. It counts as cell-based. Conditions: Table 8.
Assay [3] relates to FGFr. The assay can be described thus: FGF-induced BrdU incorporation assay. It is filed as cell-based. As to conditions: Table 8. For orientation: Uptake of a labelled nucleoside into DNA is a usual measure of proliferation.
Assay [4] has as its system HUV-EC-C cells. The assay can be described thus: HUV-EC-C assay, aFGF (3H-thymidine incorporation). Conditions: Homo sapiens, Table 9; aFGF (ECGF)-stimulated HUV-EC-C, 3H-thymidine; read-out: aFGF IC50. It counts as cell-based, human. The method, then: The following protocol may also be used to measure a compound's activity against PDGF-R, FGF-R, VEGF, aFGF or Flk-1/KDR, all of which are naturally expressed by HUV-EC cells.
1. […] After cells have detached from the flask, add an equal volume of assay medium and transfer to a 50 mL sterile centrifuge tube (Fisher Scientific; catalogue no. 05-539-6).
1. Make up two-fold drug titrations in separate 96-well plates, generally 50 μM on down to 0 μM. Use the same assay medium as mentioned in day 0, step 2 above. Titrations are made by adding 90 μl/well of drug at 200 μM (4×the final well concentration) to the top well of a particular plate column. Since the stock drug concentration is usually 20 mM in DMSO, the 200 μM drug concentration contains 2% DMSO.
Therefore, diluent made up to 2% DMSO in assay medium (F12K+0.5% fetal bovine serum) is used as diluent for the drug titrations in order to dilute the drug but keep the DMSO concentration constant. Add this diluent to the remaining wells in the column at 60 μl/well. Take 60 μl from the 120 μl of 200 μM drug dilution in the top well of the column and mix with the 60 μl in the second well of the column. Take 60 μl from this well and mix with the 60 μl in the third well of the column, and so on until two-fold titrations are completed. When the next-to-the-last well is mixed, take 60 μl of the 120 μl in this well and discard it. Leave the last well with 60 μl of DMSO/media diluent as a non-drug-containing control. Make 9 columns of titrated drug, enough for triplicate wells each for 1) VEGF (obtained from Pepro Tech Inc., catalogue no. 100-200, 2) endothelial cell growth factor (ECGF) (also known as acidic fibroblast growth factor, or aFGF) (obtained from Boehringer Mannheim Biochemica, catalogue no. 1439 600); or, 3) human PDGF B/B (1276-956, Boehringer Mannheim, Germany) and assay media control. ECGF comes as a preparation with sodium heparin.
2. Transfer 50 μl/well of the drug dilutions to the 96-well assay plates containing the 0.8-1.0×10^4 cells/100 μl/well of the HUV-EC-C cells from day 0 and incubate ~2 h at 37° C., 5% CO2.
3. In triplicate, add 50 μl/well of […] VEGF, 20 ng/mL ECGF, or media control to each drug condition. As with the drugs, the growth factor concentrations are 4×the desired final concentration. Use the assay media from day 0 step 2 to make the concentrations of growth factors. Incubate approximately 24 hours at 37° C., 5% CO2. Each well will have 50 μl drug dilution, 50 μl growth factor or media, and 100 ul cells, =200 ul/well total. Thus the 4×concentrations of drugs and growth factors become 1× once everything has been added to the wells.
1. Add ^3 H-thymidine (Amersham; catalogue no. TRK-686) at 1 μCi/well (10 μl/well of 100 μCi/mL solution made up in RPMI media+10% heat-inactivated fetal bovine serum) and incubate ~24 h at 37° C., 5% CO2. RPMI is obtained from Gibco BRL, catalogue no. 11875-051.
1. Thaw plates and harvest with a 96-well plate harvester (Tomtec Harvester 96®) onto filter mats (Wallac; catalogue no. 1205-401); read counts on a Wallac Betaplate™ liquid scintillation counter.
as §1

Assay [5] concerns the target T1, PDGFr (Homo sapiens, UniProt P09619). The assay is described as follows: PDGF-induced BrdU incorporation assay. On the set-up: expressed in transfected cells; host or cells: 3T3 cell line. It is filed as cell-based.
Description: (8) 3T3 cell line genetically engineered to express human PDGF-R.
Cells were seeded at 8000 cells/well in DMEM, 10% CS, 2 mM Gln in a 96 well plate. Cells were incubated overnight at 37° C. in 5% CO2.
The negative control wells received serum free DMEM with 0.1% BSA only; the positive control cells received the ligand (PDGF) but no test compound.
The absorbance of the samples were measured at 410 nm (in "dual wavelength" mode with a filter reading at 490 nm, as a reference wavelength) on a Dynatech ELISA plate reader.
In assay [6] the target is T1, PDGFr. The assay can be described thus: PDGF-R ELISA. More on the design: cells (U1242, obtained from Joseph Schlessinger, NYU); endogenous in cells; host or cells: U1242. It counts as cell-based. (ELISA stands for enzyme-linked immunosorbent assay.)
Description: All cell culture media, glutamine, and fetal bovine serum can be purchased from Gibco Life Technologies (Grand Island, N.Y.) unless otherwise specified. […] All cell lines are routinely subcultured twice a week and are negative for mycoplasma as determined by the Mycotect method (Gibco).
For ELISA assays, cells (U1242, obtained from Joseph Schlessinger, NYU) are grown to 80-90% confluency in growth medium (MEM with 10% FBS, NEAA, 1 mM NaPyr and 2 mM GLN) and seeded in 96-well tissue culture plates in 0.5% serum at 25,000 to 30,000 cells per well. After overnight incubation in 0.5% serum-containing medium, cells are changed to serum-free medium and treated with test compound for 2 hr in a 5% CO2, 37° C. incubator. […] Lysates are incubated with shaking for 1 hour at room temperature. The plates are washed with TBST four times and then incubated with polyclonal anti-phosphotyrosine antibody at room temperature for 30 minutes. Excess anti-phosphotyrosine antibody is removed by rinsing the plate with TBST four times. Goat anti-rabbit IgG antibody is added to the ELISA plate for 30 min at room temperature followed by rinsing with TBST four more times. […] Absorbance at 410 nm with a reference wavelength of 630 nm is recorded about 15 to 30 min after ABTS addition.
For assay [7], the target named is T2, FLK-1 receptor (Mus musculus, UniProt P35918).
T2 construct: expressed in transfected cells; host or cells: NIH3T3 C7#3 cells
T2 sequence (P35918 20-1345): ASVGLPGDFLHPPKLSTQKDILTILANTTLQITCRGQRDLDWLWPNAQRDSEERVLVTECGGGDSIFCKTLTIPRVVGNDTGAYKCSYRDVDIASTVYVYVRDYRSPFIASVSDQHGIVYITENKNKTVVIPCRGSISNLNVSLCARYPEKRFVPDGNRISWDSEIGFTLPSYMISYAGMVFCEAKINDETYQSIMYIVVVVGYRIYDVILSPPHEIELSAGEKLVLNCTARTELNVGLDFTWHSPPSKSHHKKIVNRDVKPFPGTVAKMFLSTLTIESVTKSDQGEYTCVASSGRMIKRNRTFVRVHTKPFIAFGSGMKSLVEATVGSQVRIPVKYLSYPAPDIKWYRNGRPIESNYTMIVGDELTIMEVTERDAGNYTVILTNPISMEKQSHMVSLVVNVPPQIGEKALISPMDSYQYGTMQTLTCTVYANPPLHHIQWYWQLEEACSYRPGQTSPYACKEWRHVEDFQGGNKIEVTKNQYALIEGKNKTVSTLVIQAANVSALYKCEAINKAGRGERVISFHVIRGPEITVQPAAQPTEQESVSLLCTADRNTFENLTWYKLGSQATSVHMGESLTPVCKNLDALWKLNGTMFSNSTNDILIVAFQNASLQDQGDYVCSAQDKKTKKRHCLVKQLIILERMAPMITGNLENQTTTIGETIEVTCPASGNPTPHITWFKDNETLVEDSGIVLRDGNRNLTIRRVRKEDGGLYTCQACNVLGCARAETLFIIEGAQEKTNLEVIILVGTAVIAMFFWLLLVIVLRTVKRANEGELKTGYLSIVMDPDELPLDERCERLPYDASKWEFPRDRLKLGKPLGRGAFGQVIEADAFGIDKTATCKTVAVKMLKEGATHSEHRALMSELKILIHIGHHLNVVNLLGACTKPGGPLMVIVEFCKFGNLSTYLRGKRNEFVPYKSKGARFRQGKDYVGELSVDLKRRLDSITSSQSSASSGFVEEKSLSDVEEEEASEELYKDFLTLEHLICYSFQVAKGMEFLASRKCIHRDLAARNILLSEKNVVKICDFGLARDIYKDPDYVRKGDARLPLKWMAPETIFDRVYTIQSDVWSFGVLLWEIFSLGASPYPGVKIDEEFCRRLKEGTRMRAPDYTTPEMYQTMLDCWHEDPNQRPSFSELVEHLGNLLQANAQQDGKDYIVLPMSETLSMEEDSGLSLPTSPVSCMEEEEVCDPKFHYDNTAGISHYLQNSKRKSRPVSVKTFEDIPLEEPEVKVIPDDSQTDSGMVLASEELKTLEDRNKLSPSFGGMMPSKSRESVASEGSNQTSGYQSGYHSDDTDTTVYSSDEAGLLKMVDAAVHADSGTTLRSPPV
The assay is described as follows: FLK-1 ELISA (kinase activity of the FLK-1 receptor in engineered cells). It is filed as cell-based. As to conditions: Table 3; VEGF-stimulated NIH3T3 C7#3 cells; read-out: FLK-1 IC50.

Assay [8] has as its target T3, src protein kinase (Gallus gallus, UniProt P00523).
T3 construct: made in house; host or cells: Schizosaccharomyces pombe (yeast transformed with src, lysate)
The assay can be described thus: Biochemical src assay - ELISA. As to conditions: Table 6; 5 μM ATP, biotinylated peptide substrate. As to the method: This assay is used to determine src protein kinase activity measuring phosphorylation of a biotinylated peptide as the readout.
h. […] S. Pombe strain SP200 (h-s leul.32 ura4 ade210) is grown as described and transformations are pRSP expression plasmids are done by the lithium acetate method (Superti-Furga, supra). Cells are grown in the presence of 1 μM thiamine to repress expression from the nmtl promoter or in the absence of thiamine to induce expression.
2. Add 0.08 mL Kinase Reaction Mixture per well (containing 10 μL of 10×Kinase Buffer and 10 μM (final concentration) biotin-[…] per well diluted in water.
3. Add 10 μL of compound diluted in water containing 10% DMSO and pre-incubate for 15 minutes at room temperature.
4. Start kinase reaction by adding 10 μL/well of 0.05 mM ATP in water (5 μM ATP final).
as §1

Setting [9] is: Table 8, BrdU incorporation, 3.8 nM PDGF, read-out: PDGFr IC50.
[10] abbreviates: Table 4, ligand-stimulated U1242 cells, read-out: PDGF-R IC50.

T1 sequence (P09619 33-1106): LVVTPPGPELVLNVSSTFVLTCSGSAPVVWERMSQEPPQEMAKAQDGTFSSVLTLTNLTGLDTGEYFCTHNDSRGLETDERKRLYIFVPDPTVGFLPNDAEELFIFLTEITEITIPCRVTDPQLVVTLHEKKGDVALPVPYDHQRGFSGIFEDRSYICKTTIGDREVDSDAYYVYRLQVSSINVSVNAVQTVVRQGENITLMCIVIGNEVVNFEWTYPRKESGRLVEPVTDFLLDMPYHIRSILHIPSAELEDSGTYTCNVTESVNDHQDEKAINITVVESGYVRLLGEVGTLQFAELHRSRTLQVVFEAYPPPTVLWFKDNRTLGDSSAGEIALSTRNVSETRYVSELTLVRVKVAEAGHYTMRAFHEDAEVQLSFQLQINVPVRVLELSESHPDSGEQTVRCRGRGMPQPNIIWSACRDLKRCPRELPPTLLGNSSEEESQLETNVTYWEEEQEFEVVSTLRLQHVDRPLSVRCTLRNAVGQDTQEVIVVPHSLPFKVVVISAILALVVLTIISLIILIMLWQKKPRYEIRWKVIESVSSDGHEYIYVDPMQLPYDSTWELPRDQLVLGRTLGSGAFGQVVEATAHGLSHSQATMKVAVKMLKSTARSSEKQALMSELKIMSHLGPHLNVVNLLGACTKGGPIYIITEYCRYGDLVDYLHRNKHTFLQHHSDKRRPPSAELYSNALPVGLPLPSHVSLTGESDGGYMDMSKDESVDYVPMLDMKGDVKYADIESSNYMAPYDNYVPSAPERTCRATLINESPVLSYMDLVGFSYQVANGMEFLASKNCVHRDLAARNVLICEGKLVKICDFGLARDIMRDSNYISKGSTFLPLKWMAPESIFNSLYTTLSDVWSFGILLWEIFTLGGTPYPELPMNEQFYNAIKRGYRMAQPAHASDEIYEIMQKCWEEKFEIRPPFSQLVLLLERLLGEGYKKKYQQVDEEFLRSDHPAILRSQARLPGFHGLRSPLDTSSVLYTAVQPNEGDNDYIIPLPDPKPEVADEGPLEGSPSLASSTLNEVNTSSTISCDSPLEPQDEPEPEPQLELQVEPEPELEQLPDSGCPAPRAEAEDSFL
Chain of EGFr (P00533 25-1210): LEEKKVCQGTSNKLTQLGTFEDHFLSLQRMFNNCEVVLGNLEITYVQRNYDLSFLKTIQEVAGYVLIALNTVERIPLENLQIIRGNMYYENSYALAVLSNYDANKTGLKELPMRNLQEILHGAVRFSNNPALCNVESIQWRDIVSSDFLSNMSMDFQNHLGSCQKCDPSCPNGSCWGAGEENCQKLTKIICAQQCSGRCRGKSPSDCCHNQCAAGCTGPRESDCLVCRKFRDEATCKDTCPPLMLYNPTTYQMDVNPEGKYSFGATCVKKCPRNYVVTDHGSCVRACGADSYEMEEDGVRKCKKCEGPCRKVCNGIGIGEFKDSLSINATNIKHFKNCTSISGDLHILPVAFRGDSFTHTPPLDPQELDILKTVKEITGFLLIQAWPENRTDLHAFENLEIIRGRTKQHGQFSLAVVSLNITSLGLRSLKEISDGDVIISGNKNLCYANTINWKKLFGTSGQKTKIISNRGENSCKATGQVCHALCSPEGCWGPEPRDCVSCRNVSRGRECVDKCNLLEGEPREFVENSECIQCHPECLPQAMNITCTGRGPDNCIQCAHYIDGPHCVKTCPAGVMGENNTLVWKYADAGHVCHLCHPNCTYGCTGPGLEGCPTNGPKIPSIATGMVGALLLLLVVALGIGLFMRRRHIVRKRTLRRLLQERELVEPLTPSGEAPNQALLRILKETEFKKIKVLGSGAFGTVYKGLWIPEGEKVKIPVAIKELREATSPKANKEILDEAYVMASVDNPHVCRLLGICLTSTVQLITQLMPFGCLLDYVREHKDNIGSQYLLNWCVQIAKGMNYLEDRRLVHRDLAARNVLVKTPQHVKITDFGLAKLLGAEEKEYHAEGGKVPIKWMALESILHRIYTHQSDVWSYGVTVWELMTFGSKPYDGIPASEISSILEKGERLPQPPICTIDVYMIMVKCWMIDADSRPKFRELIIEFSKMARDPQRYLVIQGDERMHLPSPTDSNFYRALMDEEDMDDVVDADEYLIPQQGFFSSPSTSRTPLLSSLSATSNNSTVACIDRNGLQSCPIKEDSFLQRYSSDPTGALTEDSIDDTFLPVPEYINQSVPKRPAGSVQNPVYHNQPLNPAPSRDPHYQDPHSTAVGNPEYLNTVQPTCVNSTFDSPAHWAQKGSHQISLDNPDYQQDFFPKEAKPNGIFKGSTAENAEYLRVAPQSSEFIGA

The term IC50 denotes the concentration that gives 50% inhibition. As to `COc1ccccc1-c1ccc2c(c1)NC(=O)C2=Cc1[nH]c2c(c1C)CCCC2` [6-(2-methoxyphenyl)-3-(3-methyl-4,5,6,7-tetrahydro-1H-indol-2-ylmethylene)-1,3-dihydro-indol-2-one], the IC50 is greater than 100 µM in assay [1]; greater than 50 µM in assay [2]; greater than 50 µM in assay [3]; greater than 12.5 µM in assay [4]; greater than 50 µM in assay [5] (setting [9]); 95.7 µM in assay [6] (setting [10]).
On to `COc1ccccc1-c1ccc2c(c1)NC(=O)C2=Cc1cc2c([nH]1)CCCC2` [6-(2-methoxyphenyl)-3-(4,5,6,7-tetrahydro-1H-indol-2-ylmethylene)-1,3-dihydro-indol-2-one], for which the IC50 was greater than 100 µM in assay [1]; 34.1 µM in assay [2]; 43.6 µM in assay [3]; 14.6 µM in assay [4]; 1.06 µM in assay [5]; 12.3 µM in assay [6].
As for `CCOc1cccc(-c2ccc3c(c2)NC(=O)C3=Cc2cc3c([nH]2)CCCC3)c1` [6-(3-ethoxyphenyl)-3-(4,5,6,7-tetrahydro-1H-indol-2-ylmethylene)-1,3-dihydro-indol-2-one], the IC50 in assay [1] was greater than 20 µM; in assay [2], greater than 50 µM; in assay [3], greater than 50 µM; in assay [4], greater than 25 µM; in assay [5] (setting [9]), greater than 50 µM; in assay [6] (setting [10]) it was greater than 100 µM.
Take `COc1cccc(-c2ccc3c(c2)NC(=O)C3=Cc2[nH]c3c(c2C)CCCC3)c1` [6-(3-methoxyphenyl)-3-(3-methyl-4,5,6,7-tetrahydro-1H-indol-2-ylmethylene)-1,3-dihydro-indol-2-one]: the IC50 in assay [7] is greater than 5 µM; in assay [1], greater than 20 µM; in assay [6] (setting [10]) it was 5.83 µM.
With `COc1cccc(-c2ccc3c(c2)NC(=O)C3=Cc2cc3c([nH]2)CCCC3)c1` [6-(3-methoxyphenyl)-3-(4,5,6,7-tetrahydro-1H-indol-2-ylmethylene)-1,3-dihydro-indol-2-one], the IC50 in assay [7] is greater than 20 µM; in assay [2], 31.8 µM; in assay [3], greater than 50 µM; in assay [4] it was greater than 50 µM; in assay [5] (setting [9]), greater than 50 µM; in assay [6] (setting [10]), greater than 100 µM.
As for `COc1ccc(-c2ccc3c(c2)NC(=O)C3=Cc2[nH]c3c(c2C)CCCC3)cc1` [6-(4-methoxyphenyl)-3-(3-methyl-4,5,6,7-tetrahydro-1H-indol-2-ylmethylene)-1,3-dihydro-indol-2-one], the IC50 in assay [1] is greater than 100 µM; in assay [2], greater than 50 µM; in assay [3], greater than 50 µM; in assay [4], greater than 50 µM; in assay [5] (setting [9]), greater than 50 µM; in assay [6] (setting [10]), greater than 100 µM.
With `COc1ccc(-c2ccc3c(c2)NC(=O)C3=Cc2cc3c([nH]2)CCCC3)cc1` [6-(4-methoxyphenyl)-3-(4,5,6,7-tetrahydro-1H-indol-2-ylmethylene)-1,3-dihydro-indol-2-one], the IC50 in assay [1] is greater than 100 µM; in assay [2] it was greater than 50 µM; in assay [3], greater than 50 µM; in assay [4], greater than 12.5 µM; in assay [5], greater than 50 µM; in assay [6], 94 µM.
With `Cc1c(C=C2C(=O)Nc3cc(Br)ccc32)[nH]c2c1CCCC2` [6-bromo-3-(3-methyl-4,5,6,7-tetrahydro-1H-indol-2-ylmethylene)-1,3-dihydro-indol-2-one], the figures for the IC50 in assay [7], in assay [1] and in assay [6] (setting [10]) were 2.19 µM, greater than 20 µM and 40 µM, respectively.
In the case of `O=C1Nc2cc(Br)ccc2C1=Cc1cc2c([nH]1)CCCC2` [6-bromo-3-(4,5,6,7-tetrahydro-1H-indol-2-ylmethylene)-1,3-dihydro-indol-2-one], the values for the IC50 in assay [1] and in assay [6] (setting [10]) were greater than 20 µM and greater than 100 µM, respectively.
Take `O=C1Nc2cc(Cl)ccc2C1=Cc1cc2c([nH]1)CCCC2` [6-chloro-3-(4,5,6,7-tetrahydro-1H-indol-2-ylmethylene)-1,3-dihydro-indol-2-one]: the IC50 in assay [1] was greater than 20 µM; in assay [6] (setting [10]), greater than 100 µM.
For the compound `O=C1Nc2cc(O)ccc2C1=Cc1cc2c([nH]1)CCCC2` [6-hydroxy-3-(4,5,6,7-tetrahydro-1H-indol-2-ylmethylene)-1,3-dihydro-indol-2-one], the IC50 worked out at 17.1 µM in assay [7]; 21 µM in assay [8]; 12.6 µM in assay [2]; 6.21 µM in assay [3]; 0.51 µM in assay [5] (setting [9]); 47.2 µM in assay [6] (setting [10]).
On to `COc1ccc2c(c1)NC(=O)C2=Cc1cc2c([nH]1)CCCC2` [6-methoxy-3-(4,5,6,7-tetrahydro-1H-indol-2-ylmethylene)-1,3-dihydro-indol-2-one], for which the 50% inhibitory concentration (IC50) in assay [2] and in assay [3] was greater than 50 µM throughout.
Turning to `O=C1Nc2cc(-c3ccccc3)ccc2C1=Cc1cc2c([nH]1)CCCC2` [6-phenyl-3-(4,5,6,7-tetrahydro-1H-indol-2-ylmethylene)-1,3-dihydro-indol-2-one], the IC50 was greater than 100 µM in assay [1]; greater than 50 µM in assay [2]; greater than 50 µM in assay [3]; greater than 12.5 µM in assay [4]; greater than 50 µM in assay [5] (setting [9]); 70.6 µM in assay [6] (setting [10]).
In the case of `Cc1cc(Br)c2c(c1)C(=Cc1cc3c([nH]1)CCCC3)C(=O)N2` [7-bromo-5-methyl-3-(4,5,6,7-tetrahydro-1H-indol-2-ylmethylene)-1,3-dihydro-indol-2-one], the IC50 in assay [7] was greater than 2.5 µM; in assay [6] (setting [10]), 5.56 µM.
